Data from PubChem BioAssay (NCI).
Values joined by “and” are separate entries in the source; they are usually repeats but may differ in a detail not shown here. Equal entries are not always repeated.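 Test compounds were applied to cells in 96-well plates for 48 hours at 5 doses. GI50 marks 50% less growth. TGI: total growth inhibition.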

Experiments:
Experiment in all cases: DTP human tumour cell line panel, 48 h
HL-60(TB) leukemia = tested on: HL-60(TB) leukemia
LOX IMVI melanoma = tested on: LOX IMVI melanoma
SR leukemia = tested on: SR leukemia
NCI-H23 lung = tested on: NCI-H23 lung
MOLT-4 leukemia = tested on: MOLT-4 leukemia
SK-MEL-2 melanoma = tested on: SK-MEL-2 melanoma
CAKI-1 renal = tested on: CAKI-1 renal
HCC-2998 colon = tested on: HCC-2998 colon
ACHN renal = tested on: ACHN renal
U251 CNS = tested on: U251 CNS

Compound	GI50 (HL-60(TB) leukemia)	TGI (HL-60(TB) leukemia)	GI50 (LOX IMVI melanoma)	TGI (LOX IMVI melanoma)	GI50 (SR leukemia)	TGI (SR leukemia)	GI50 (NCI-H23 lung)	TGI (NCI-H23 lung)	GI50 (MOLT-4 leukemia)	TGI (MOLT-4 leukemia)	GI50 (SK-MEL-2 melanoma)	TGI (SK-MEL-2 melanoma)	GI50 (CAKI-1 renal)	TGI (CAKI-1 renal)	GI50 (HCC-2998 colon)	TGI (HCC-2998 colon)	GI50 (ACHN renal)	TGI (ACHN renal)	GI50 (U251 CNS)	TGI (U251 CNS)
CN[C@@H](C)C(=O)N[C@H](C(=O)N1CCC[C@H]1C(=O)Nc1sc(-c2ncco2)nc1-c1ccccc1)C1CCCCC1	16.9 µM	39.1 µM	18.5 µM	34.8 µM	14 µM	54.7 µM	25.8 µM	> 100 µM	29.2 µM	88.1 µM	16.3 µM	> 100 µM	51.8 µM	> 100 µM	25.7 µM	65.7 µM	19.3 µM	> 54.9 µM	26.9 µM	> 77.7 µM
OCC1OC(n2cnc3c(N/N=C\c4ccccn4)ncnc32)C(O)C1O (configuration not stated)	0.0247 µM	0.204 µM	0.0971 µM	–	0.0387 µM	> 87.7 µM	0.476 µM	> 100 µM	0.0532 µM	> 100 µM	0.611 µM	> 100 µM	0.202 µM	0.809 µM	0.277 µM	> 100 µM	0.2 µM	1.78 µM	0.4 µM	> 100 µM
NC(=O)c1csc(C2OC(CO)C(O)C2O)n1 (configuration not stated)	36.5 µM	3330 µM	> 53.2 µM	7900 µM	103 µM	> 6090 µM	52.3 µM	5250 µM	17.8 µM	3600 µM	–	6440 µM	65.8 µM and > 50.1 µM	1220 µM	75.8 µM	> 10000 µM	54.5 µM	> 10000 µM	45.5 µM	2540 µM
O=C1OCC2=C1C(c1ccc(Cl)c(Cl)c1)c1cc3c(cc1N2CCO)OCCO3 (configuration not stated)	0.135 µM	0.587 µM	0.316 µM	10.8 µM	0.187 µM	21.7 µM	0.279 µM	21.7 µM	0.456 µM	> 42.3 µM	0.137 µM	1.11 µM	0.277 µM	> 35.5 µM	0.503 µM	4.33 µM	0.334 µM	44.9 µM	0.206 µM	12.7 µM
COc1cc(N2C(=O)[C@H](O)C2c2ccc(SC)cc2)cc(OC)c1OC (some centres not stated)	0.0106 µM	0.0448 µM	< 0.01 µM	> 100 µM	< 0.01 µM	> 100 µM	0.0191 µM	> 100 µM	0.0334 µM	53.4 µM	< 0.01 µM	> 100 µM	< 0.01 µM	> 100 µM	0.0238 µM	65.3 µM	< 0.01 µM	60.5 µM	< 0.01 µM	> 100 µM
OCc1ccc(N2CCCC2c2ccccc2)cc1Cl (configuration not stated)	3.07 µM	11.1 µM	9.67 µM	22.5 µM	3.13 µM	17.2 µM	5.51 µM	30 µM	4.75 µM	24.9 µM	2.31 µM	6.97 µM	2.83 µM	17.4 µM	4.88 µM	17.5 µM	11.7 µM	26.9 µM	2.35 µM	13.3 µM
CC(=O)/C=C/c1cn(C(=O)OC(C)(C)C)c2ccc(Br)cc12	29.6 µM	> 100 µM	10.7 µM	25.2 µM	71.6 µM	> 100 µM	19.8 µM	42 µM	41.6 µM	> 100 µM	20.9 µM	54.6 µM	22.1 µM	42.5 µM	18 µM	37.4 µM	11.6 µM	24.8 µM	12.5 µM	25.5 µM
O=S(=O)(Nc1cc(Sc2cccc3cccnc23)c(O)c2ccccc12)c1ccc(F)cc1	2.12 µM	5.88 µM	0.624 µM	2.82 µM	0.465 µM	7.63 µM	1.46 µM	4.32 µM	0.432 µM	3.21 µM	1.84 µM	7.52 µM	2.79 µM	–	4.8 µM	15.6 µM	1.34 µM	7.78 µM	0.839 µM	10.4 µM
O=C1NC(=O)C2C(=O)NC(=O)C1C2c1c(Cl)cccc1Cl (configuration not stated)	–	> 63.4 µM	–	> 57.4 µM	–	> 100 µM	–	> 100 µM	–	> 100 µM	–	> 100 µM	–	> 100 µM	–	> 100 µM	–	> 100 µM	–	> 100 µM
c1cnn2ncc(-c3ccnc(NCCCN4CCOCC4)n3)c2c1	6.08 µM	17.7 µM	5.18 µM	> 25 µM	5.21 µM	> 21.3 µM	7.87 µM	> 25 µM	9.61 µM	> 25 µM	5.12 µM	13.9 µM	6.64 µM	> 25 µM	9.29 µM	> 25 µM	6.08 µM	> 25 µM	7.18 µM	> 25 µM
O=[N+]([O-])c1ccc(C=Cc2ccccc2)cc1.[C-]#[O+].[C-]#[O+].[C-]#[O+].[Cr]	5.2 µM	> 100 µM	31.3 µM	> 100 µM	2.49 µM	> 100 µM	20.9 µM	> 100 µM	5.13 µM	> 100 µM	57.7 µM	> 100 µM	11.9 µM	> 100 µM	> 100 µM	> 100 µM	18.5 µM	> 100 µM	36.7 µM	> 100 µM
Fc1ccc(/C=N/n2c(-c3ccc(F)c(Cl)c3)nn(CNc3ccccc3C(F)(F)F)c2=S)cc1	39.4 µM	> 100 µM	54.9 µM	> 100 µM	31.2 µM	> 100 µM	61.7 µM	> 100 µM	28.4 µM	> 100 µM	46.6 µM	> 100 µM	> 100 µM	> 100 µM	89.7 µM	> 100 µM	81.1 µM	> 100 µM	69.1 µM	> 100 µM
